Experiments:
[1] = tested on: MDA-MB-468; assay: NCI five-dose testing, MDA-MB-468
[2] = tested on: SNB-75; assay: cells; conditions: Homo sapiens
[3] = tested on: OVCAR-8; conditions: Ovarian Cancer
[4] = tested on: T-47D; assay: NCI five-dose testing, T-47D
[5] = tested on: KM12; conditions: Colon Cancer
[6] = tested on: NCI-H23; assay: cells; conditions: Homo sapiens
[7] = tested on: NCI-H522; assay: NCI five-dose testing, NCI-H522
[8] = tested on: OVCAR-4; assay: NCI five-dose testing, OVCAR-4
[9] = tested on: OVCAR-8; assay: cells; conditions: Homo sapiens
[10] = tested on: ACHN; assay: cells; conditions: Homo sapiens
[11] = tested on: UO-31; conditions: Renal Cancer
[12] = tested on: UACC-62; conditions: Melanoma
[13] = tested on: HL-60(TB); assay: NCI five-dose testing, HL-60(TB)
[14] = tested on: SNB-75; conditions: CNS Cancer
[15] = tested on: CCRF-CEM; assay: NCI five-dose testing, CCRF-CEM
[16] = tested on: MCF7; assay: NCI five-dose testing, MCF7
[17] = tested on: UO-31; assay: cells; conditions: Homo sapiens
[18] = tested on: UACC-62; assay: cells; conditions: Homo sapiens
[19] = tested on: MOLT-4; assay: NCI five-dose testing, MOLT-4
[20] = tested on: KM12; assay: cells; conditions: Homo sapiens
[21] = tested on: OVCAR-3; assay: NCI five-dose testing, OVCAR-3
[22] = tested on: ACHN; conditions: Renal Cancer
[23] = tested on: NCI-H23; conditions: Non-Small Cell Lung Cancer
[24] = tested on: RPMI-8226; assay: NCI five-dose testing, RPMI-8226

SMILES: C=CCN(C(=O)C(=O)NC1=CC(=O)c2ccccc2C1=O)c1c(OC)cccc1OC
- TGI ([1]; Breast Cancer, MDA-MB-468): 8.97 × 10^−7
- GI50 ([1]; Homo sapiens, MDA-MB-468): 275 nM
- CC50 ([1]; Homo sapiens, MDA-MB-468, read-out: LC50): 3000 nM
- GI50 ([2]; SNB-75): 1430 nM
- CC50 ([2]; SNB-75, read-out: LC50): 5990 nM
- TGI [3]: 2.70 × 10^−6
- TGI ([4]; Breast Cancer, T-47D): 2.81 × 10^−6
- GI50 ([4]; Homo sapiens, T47D): 1480 nM
- CC50 ([4]; Homo sapiens, T47D, read-out: LC50): 5330 nM
- TGI [5]: 2.28 × 10^−6
- GI50 ([6]; NCI-H23): 1440 nM
- CC50 ([6]; NCI-H23, read-out: LC50): 5390 nM
- GI50 ([7]; Homo sapiens, NCI-H522): 1250 nM
- CC50 ([7]; Homo sapiens, NCI-H522, read-out: LC50): 5030 nM
- TGI ([7]; Non-Small Cell Lung Cancer, NCI-H522): 2.51 × 10^−6
- GI50 ([8]; Homo sapiens, OVCAR-4): 1220 nM
- CC50 ([8]; Homo sapiens, OVCAR-4, read-out: LC50): 4980 nM
- TGI ([8]; Ovarian Cancer, OVCAR-4): 2.46 × 10^−6
- GI50 ([9]; OVCAR-8): 1360 nM
- CC50 ([9]; OVCAR-8, read-out: LC50): 5360 nM
- GI50 [10]: 1350 nM
- CC50 ([10]; read-out: LC50): 5210 nM
- TGI [11]: 2.76 × 10^−6
- TGI [12]: 2.81 × 10^−6
- GI50 ([13]; Homo sapiens, HL-60): 249 nM
- CC50 ([13]; Homo sapiens, HL-60, read-out: LC50): 1520 nM
- TGI ([13]; Leukemia, HL-60(TB)): 5.42 × 10^−7
- TGI [14]: 2.93 × 10^−6
- GI50 ([15]; Homo sapiens): 781 nM
- CC50 ([15]; Homo sapiens, read-out: LC50): 4550 nM
- TGI ([15]; Leukemia): 2.04 × 10^−6
- TGI ([16]; Breast Cancer, MCF7): 2.78 × 10^−6
- GI50 ([16]; Homo sapiens, MCF7): 1450 nM
- CC50 ([16]; Homo sapiens, MCF7, read-out: LC50): 5320 nM
- GI50 ([17]; UO-31): 1440 nM
- CC50 ([17]; UO-31, read-out: LC50): 5310 nM
- GI50 ([18]; UACC-62): 1480 nM
- CC50 ([18]; UACC-62, read-out: LC50): 5350 nM
- GI50 ([19]; Homo sapiens, MOLT-4): 441 nM
- CC50 ([19]; Homo sapiens, MOLT-4, read-out: LC50): 4040 nM
- TGI ([19]; Leukemia, MOLT-4): 1.62 × 10^−6
- GI50 ([20]; KM12): 626 nM
- CC50 ([20]; KM12, read-out: LC50): 6390 nM
- GI50 ([21]; Homo sapiens, OVCAR-3): 1030 nM
- CC50 ([21]; Homo sapiens, OVCAR-3, read-out: LC50): 4730 nM
- TGI ([21]; Ovarian Cancer, OVCAR-3): 2.21 × 10^−6
- TGI [22]: 2.66 × 10^−6
- TGI [23]: 2.79 × 10^−6
- GI50 ([24]; Homo sapiens, RPMI-8226): 1040 nM
- CC50 ([24]; Homo sapiens, RPMI-8226, read-out: LC50): 4740 nM
- TGI ([24]; Leukemia, RPMI-8226): 2.22 × 10^−6
